This experiment addresses T1, microID (BioID2 [2-171]); with L41P = ultraID (Aquifex aeolicus, UniProt O66837, R40G/L41P).
T1 construct: gene birA; pET22b, E. coli BL21(DE3), IMAC purified
In words: ELISA-based biotinylation assay, streptavidin-alkaline phosphatase. To be noted: 50 µM biotin, 2.5 mM ATP, 5 mM MgCl2, pH 7.5, 37 °C, 10 min; acceptor human serum albumin. It counts as biochemical. In general terms: In an ELISA, binding on a coated surface is turned into a signal by an enzyme label.

T1 sequence (O66837 entry or part of it R40G/L41P): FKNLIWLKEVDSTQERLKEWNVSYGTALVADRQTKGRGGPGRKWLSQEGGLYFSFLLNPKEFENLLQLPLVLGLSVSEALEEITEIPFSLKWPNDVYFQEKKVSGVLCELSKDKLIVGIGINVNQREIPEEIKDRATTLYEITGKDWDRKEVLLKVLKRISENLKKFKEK

`O=C(O)CCCC[C@@H]1SC[C@@H]2NC(=O)N[C@@H]21` [biotin]: the “ELISA-based biotinylation assay, streptavidin-alkaline phosphatase” value is “combined R40G/L41P mutations showed the highest activity of all tested variants”.
